As a reminder, the MIC is the lowest concentration found to suppress growth.

Data set [1] deals with Fusarium oxysporum f. sp. lycopersici FOL 3 race 2. Kind of data set: MIC, antifungal growth inhibition in microtiter plates (PDB). Particulars: Fo, 22°C, seven days, OD 600 nm, lowest concentration with no growth, given as interval of tested concentrations, three replicates, experiment repeated twice. The data set is classed as cell-based. The gist of the method:
(§1)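 Conidial suspensions (10^3 conidia/mL P. expansum, 10^4 F. oxysporum) incubated with peptides in PDB with 0.003% chloramphenicol at 22 °C for seven days, OD600 read every 2 h. MIC is the lowest concentration with no growth at the end; triplicates, experiment repeated twice.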

Data set [2] relates to Penicillium expansum EPS26. The data set is described as above. The class given is cell-based. Particulars: Pe, 22°C, seven days, OD 600 nm, lowest concentration with no growth, given as interval of tested concentrations, three replicates, experiment repeated twice. The procedure, abridged: as §1
The test system of data set [3] is Erwinia amylovora PMV6076. Kind of data set: MIC, growth inhibition in microtiter plates (TSB). The data set is classed as cell-based. The following applies: Ea, 25°C, 48 h, OD 600 nm, lowest concentration with no growth, given as interval of tested concentrations, three replicates, experiment repeated twice. The procedure, abridged:
(§2)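 Agar-grown cells in water (10^8 CFU mL^-1 stock suspension) + serially diluted peptide (1 mM water stock) in TSB; 25°C, 48 h, OD600 hourly; no-growth endpoint gives MIC.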

For data set [4], the system named is Xanthomonas arboricola pv. pruni CFBP5563. Kind of data set: MIC, growth inhibition in microtiter plates (TSB). The data set is classed as cell-based. Particulars: Xap, 25°C, 48 h, OD 600 nm, lowest concentration with no growth, given as interval of tested concentrations, three replicates, experiment repeated twice. The procedure, abridged:
as §2

Data set [5] concerns Xanthomonas fragariae Xf349-9A. Kind of data set: MIC, growth inhibition in microtiter plates (TSB). The following applies: Xf, 25°C, 48 h, OD 600 nm, lowest concentration with no growth, given as interval of tested concentrations, three replicates, experiment repeated twice. The data set is classed as cell-based. The procedure, abridged:
as §2

In data set [6] the test system is Pseudomonas syringae pv. actinidiae Psa3700.1.1. Kind of data set: MIC, growth inhibition in microtiter plates (TSB). Particulars: Psa, 25°C, 48 h, OD 600 nm, lowest concentration with no growth, given as interval of tested concentrations, three replicates, experiment repeated twice. The class given is cell-based. The procedure, abridged: as §2
The subject of data set [7] is Xanthomonas axonopodis pv. vesicatoria 2133–2. Kind of data set: MIC, growth inhibition in microtiter plates (TSB). The class given is cell-based. The following applies: Xav, 25°C, 48 h, OD 600 nm, lowest concentration with no growth, given as interval of tested concentrations, three replicates, experiment repeated twice. The procedure, abridged: as §2
The subject of data set [8] is Pseudomonas syringae pv. syringae EPS94. Kind of data set: MIC, growth inhibition in microtiter plates (TSB). The data set is classed as cell-based. Particulars: Pss, 25°C, 48 h, OD 600 nm, lowest concentration with no growth, given as interval of tested concentrations, three replicates, experiment repeated twice. The gist of the method:
as §2

The next data set relates to tobacco leaves. The experiment in a line: Effect of peptide infiltration on tobacco leaves. The data set is classed as in vivo. The following applies: 100 μL infiltrated, after 48 h. How it is done:
BP100 and the 36 lipopeptides were evaluated for their effect upon infiltration on tobacco leaves as described previously. Peptide solutions of 50, 150 and 250 μM were infiltrated (100 μL) into the mesophylls of fully expanded tobacco leaves. Infiltrations were carried out in a single leaf, and for each peptide and dose, at least three leaves randomly distributed in different plants were inoculated. Control infiltrations with water (negative control) or melittin (positive control) at the same molar concentration were performed. The appearance of symptoms on the leaves was followed for 48 h after infiltration and measured as a lesion diameter.

With `CCCCCCCCCCCC(=O)NCCCC[C@H](NC(=O)[C@H](CC(C)C)NC(=O)[C@H](CCCCN)NC(=O)[C@H](CCCCN)NC(C)=O)C(=O)N[C@@H](CCCCN)C(=O)N[C@@H](CCCCN)C(=O)N[C@H](C(=O)N[C@@H](CC(C)C)C(=O)N[C@@H](CCCCN)C(=O)N[C@@H](Cc1ccc(O)cc1)C(=O)N[C@@H](CC(C)C)C(N)=O)[C@@H](C)CC` [BP395, Ac-KKLK(COC11H23)KKILKYL-NH2], the MIC lay in the range of 6.2 to 12.5 µM in data set [1]; 12.5 to 25 µM in [2]; 12.5 to 25 µM in data set [3]; 1.6 to 3.1 µM in data set [4]; 1.6 to 3.1 µM in [5]; 3.1 to 6.2 µM in data set [6]. Besides, the results for the MIC in [7] and in data set [8] were 1.6 to 3.1 µM and 3.1 to 6.2 µM, respectively.
Turning to `CCCCCCCCCCCC(=O)NCCCC[C@H](NC(=O)[C@H](Cc1ccccc1)NC(=O)[C@H](CC(C)C)NC(=O)[C@H](CCCCN)NC(=O)[C@H](CCCCN)NC(C)=O)C(=O)N[C@@H](CCCCN)C(=O)N[C@H](C(=O)N[C@@H](CC(C)C)C(=O)N[C@@H](CCCCN)C(=O)N[C@@H](Cc1ccc(O)cc1)C(=O)N[C@@H](CC(C)C)C(N)=O)[C@@H](C)CC` [BP396, Ac-KKLFK(COC11H23)KILKYL-NH2], the MIC in data set [1] was 6.2 to 12.5 µM; in data set [2], 12.5 to 25 µM; in data set [3], >25 µM; in data set [4], 1.6 to 3.1 µM; in data set [5], 1.6 to 3.1 µM; in data set [6], >25 µM. The minimum inhibitory concentration (MIC) in data set [7] was 3.1 to 6.2 µM; in [8], >25 µM.
In the case of `CCCCCCCCCCCC(=O)NCCCC[C@H](NC(=O)[C@H](CCCCN)NC(=O)[C@H](Cc1ccccc1)NC(=O)[C@H](CC(C)C)NC(=O)[C@H](CCCCN)NC(=O)[C@H](CCCCN)NC(C)=O)C(=O)N[C@H](C(=O)N[C@@H](CC(C)C)C(=O)N[C@@H](CCCCN)C(=O)N[C@@H](Cc1ccc(O)cc1)C(=O)N[C@@H](CC(C)C)C(N)=O)[C@@H](C)CC` [BP397, Ac-KKLFKK(COC11H23)ILKYL-NH2], the minimal inhibitory concentration (MIC) in [1] was 6.2 to 12.5 µM; in data set [2], 12.5 to 25 µM; in data set [3], >25 µM; in data set [4], 3.1 to 6.2 µM; in data set [5] it was 1.6 to 3.1 µM; in data set [6], >25 µM. In addition, the minimal inhibitory concentration (MIC) in data set [7] was 6.2 to 12.5 µM; in data set [8], >25 µM.
As for `CCCCCCCCCCCC(=O)NCCCC[C@H](NC(=O)[C@H](CCCCN)NC(=O)[C@H](CCCCN)NC(=O)[C@H](Cc1ccccc1)NC(=O)[C@H](CC(C)C)NC(=O)[C@H](CCCCN)NC(=O)[C@H](CCCCN)NC(C)=O)C(=O)N[C@@H](CC(C)C)C(=O)N[C@@H](CCCCN)C(=O)N[C@@H](Cc1ccc(O)cc1)C(=O)N[C@@H](CC(C)C)C(N)=O` [BP398, Ac-KKLFKKK(COC11H23)LKYL-NH2], the minimum inhibitory concentration (MIC) in data set [1] is 6.2 to 12.5 µM; in [2] it was >25 µM; in data set [3], >25 µM; in data set [4], 1.6 to 3.1 µM; in data set [5], 3.1 to 6.2 µM; in [6], 3.1 to 6.2 µM. Moreover, the MIC in data set [7] was 0.8 to 1.6 µM; in data set [8], 3.1 to 6.2 µM.
On to `CCCCCCCCCCCC(=O)NCCCC[C@H](NC(=O)[C@@H](NC(=O)[C@H](CCCCN)NC(=O)[C@H](CCCCN)NC(=O)[C@H](Cc1ccccc1)NC(=O)[C@H](CC(C)C)NC(=O)[C@H](CCCCN)NC(=O)[C@H](CCCCN)NC(C)=O)[C@@H](C)CC)C(=O)N[C@@H](CCCCN)C(=O)N[C@@H](Cc1ccc(O)cc1)C(=O)N[C@@H](CC(C)C)C(N)=O` [BP399, Ac-KKLFKKIK(COC11H23)KYL-NH2], for which the MIC in [1] was 6.2 to 12.5 µM; in data set [2] it was 12.5 to 25 µM; in [3] it was >25 µM; in data set [4], 1.6 to 3.1 µM; in [5] it was 3.1 to 6.2 µM; in [6], 3.1 to 6.2 µM. Besides, the values for the MIC in [7] and in data set [8] were 0.8 to 1.6 µM and 3.1 to 6.2 µM, respectively.
As for `CCCCCCCCCCCC(=O)NCCCC[C@H](NC(=O)[C@H](CCCCN)NC(=O)[C@H](CC(C)C)NC(=O)[C@@H](NC(=O)[C@H](CCCCN)NC(=O)[C@H](CCCCN)NC(=O)[C@H](Cc1ccccc1)NC(=O)[C@H](CC(C)C)NC(=O)[C@H](CCCCN)NC(=O)[C@H](CCCCN)NC(C)=O)[C@@H](C)CC)C(=O)N[C@@H](CC(C)C)C(N)=O` [BP401, Ac-KKLFKKILKK(COC11H23)L-NH2], the MIC in data set [1] is 6.2 to 12.5 µM; in data set [2], 12.5 to 25 µM; in data set [3], >25 µM; in data set [4], 1.6 to 3.1 µM; in data set [5], 3.1 to 6.2 µM; in data set [6], 6.2 to 12.5 µM. Moreover, the MIC in data set [7] lay in the range of 0.8 to 1.6 µM; in data set [8], 6.2 to 12.5 µM.
As for `CCCCCCCCCCCC(=O)NCCCC[C@H](NC(=O)[C@H](Cc1ccc(O)cc1)NC(=O)[C@H](CCCCN)NC(=O)[C@H](CC(C)C)NC(=O)[C@@H](NC(=O)[C@H](CCCCN)NC(=O)[C@H](CCCCN)NC(=O)[C@H](Cc1ccccc1)NC(=O)[C@H](CC(C)C)NC(=O)[C@H](CCCCN)NC(=O)[C@H](CCCCN)NC(C)=O)[C@@H](C)CC)C(N)=O` [BP402, Ac-KKLFKKILKYK(COC11H23)-NH2], the MIC fell in the range of 6.2 to 12.5 µM in data set [1]; 12.5 to 25 µM in [2]; 3.1 to 6.2 µM in data set [3]; 1.6 to 3.1 µM in data set [4]; 3.1 to 6.2 µM in data set [5]; 3.1 to 6.2 µM in data set [6]. The minimal inhibitory concentration (MIC) lay within 1.6 to 3.1 µM in [7] and 3.1 to 6.2 µM in [8].
As for `CC[C@H](C)[C@H](NC(=O)CN)C(=O)NCC(=O)N[C@@H](C)C(=O)N[C@H](C(=O)N[C@@H](CC(C)C)C(=O)N[C@@H](CCCCN)C(=O)N[C@H](C(=O)N[C@@H](CC(C)C)C(=O)N[C@H](C(=O)N[C@H](C(=O)NCC(=O)N[C@@H](CC(C)C)C(=O)N1CCC[C@H]1C(=O)N[C@@H](C)C(=O)N[C@@H](CC(C)C)C(=O)N[C@H](C(=O)N[C@@H](CO)C(=O)N[C@@H](Cc1c[nH]c2ccccc12)C(=O)N[C@H](C(=O)N[C@@H](CCCCN)C(=O)N[C@@H](CCCNC(=N)N)C(=O)N[C@@H](CCCCN)C(=O)N[C@@H](CCCNC(=N)N)C(=O)N[C@@H](CCC(N)=O)C(=O)N[C@@H](CCC(N)=O)C(N)=O)[C@@H](C)CC)[C@@H](C)CC)[C@@H](C)O)[C@@H](C)O)C(C)C)C(C)C` [melittin, reference compound], the “Diameter of necrotic area in infiltrated tobacco leaves” value in the data set with tobacco leaves (50 μM) worked out at 1.1 cm; with tobacco leaves (250 μM), 2.3 cm.
